IC50 data for 26 compounds are collected here from patent US11918662B2, “Heterocyclic compounds and imaging agents for imaging huntingtin protein” (CHDI Foundation, Inc., priority 2020, dated 2024).

For the first experiment, the target named is T1, MBP-HTT(1-89)Q46-His(6×) (“Exon1-Q46”) protein aggregates (Homo sapiens, UniProt P42858, INS38QQQQQQQQQQQQQQQQQQQQQQQQQ).
T1 construct: MBP-HTT(1-89)Q46-His(6×); His(6×) (C); made in house
T1 sequence (P42858 with tags, fused parts or gaps with the stated changes limits assumed): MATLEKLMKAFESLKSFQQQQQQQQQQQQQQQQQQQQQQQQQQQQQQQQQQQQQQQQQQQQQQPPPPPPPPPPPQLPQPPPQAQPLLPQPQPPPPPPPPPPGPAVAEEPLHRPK
Nature of the experiment: Exon1-Q46 Radioligand Binding Assay.
Conditions: not given
Consider `CCC[CH2][Sn]([CH2]CCC)([CH2]CCC)[c]1ccc(NC(=O)CCn2c(=O)c3cnn(C)c3c3ccc(F)cc32)c(F)c1` [Example 24-1, 3-{7-Fluoro-1-methyl-4-oxo-1H,4H,5H-pyrazolo[4,3-c]quinolin-5-yl}-N-[2-fluoro-4-(tributylstannyl)phenyl]propanamide], for which the IC50 (as a rule, the midpoint of a concentration-inhibition curve) was less than 0.1 µM.

In the case of `Cn1ncc2c(=O)n(CCC(=O)Nc3ccc(F)cc3F)c3c[c]([Sn]([CH3])([CH3])[CH3])ccc3c21` [Example 26-1, N-(2,4-difluorophenyl)-3-[1-methyl-4-oxo-7-(trimethylstannyl)-1H,4H,5H-pyrazolo [4,3-c]quinolin-5-yl]propanamide], the IC50 is less than 0.1 µM.

Staying with this experiment, now noted: displacement of 0.3 nM [3H3-methyl]-5-((5-methoxypyridin-2-yl)methoxy)-2-(pyrazin-2-yl)benzo[d]oxazole from 1 μM aggregated Exon1-Q46, 60 minutes at 37° C.; read-out: Potency Range (IC50).
For the compound `COc1ccc(OCCCn2c(=O)c3cccn3c3ccc(F)cc32)nc1` [Example 11-1, 7-Fluoro-5-{3-[(5-methoxypyridin-2-yl)oxy]propyl}-4H,5H-pyrrolo[1,2-a]quinoxalin-4-one], the IC50 is less than 0.1 µM.

Regarding `Cc1ccc(C(=O)NCCn2c(=O)c3cccn3c3ccc(F)cc32)cc1` [Example 12-1, N-[2-(7-Fluoro-4-oxo-pyrrolo[1,2-a]quinoxalin-5-yl)ethyl]-4-methyl-benzamide], the half-inhibitory concentration (IC50) was less than 0.1 µM.

Consider `Cc1ccc(C(=O)NCCCn2c(=O)c3cccn3c3ccc(F)cc32)cc1` [Example 12-2], for which the IC50 was less than 0.1 µM.

As to `O=c1c2cccn2c2ccc(F)cc2n1CCN1CCc2ccccc2C1` [Example 13-1, 7-Fluoro-5-[2-(1,2,3,4-tetrahydroisoquinolin-2-yl)ethyl]-4H,5H-pyrrolo[1,2-a]quinoxalin-4-one], the half-inhibitory concentration (IC50) was less than 0.1 µM.

Turning to `O=c1c2cccn2c2ccc(F)cc2n1CCCN1CCc2ccccc2C1` [Example 13-2], the half-inhibitory concentration (IC50) is less than 0.1 µM.

As for `COc1ccc(C(=O)NCCn2c(=O)c3cccn3c3ccccc32)nc1` [Example 14-1, 5-Methoxy-N-(2-{4-oxo-4H,5H-pyrrolo[1,2-a]quinoxalin-5-yl}ethyl)pyridine-2-carboxamide], the half-maximal inhibitory concentration (IC50) was less than 0.1 µM.

Regarding `COc1ccc(C(=O)NCCn2c(=O)c3cccn3c3ccc(F)cc32)nc1` [Example 14-2], the concentration for half-maximal inhibition (IC50) is less than 0.1 µM.

`Cn1nc(C(=O)NCCn2c(=O)c3cccn3c3ccc(F)cc32)ccc1=O` [Example 15-1]: the IC50 is less than 0.1 µM.

In the case of `Cn1ncc2c(=O)n(CCNC(=O)c3ccc(F)cc3F)c3cc(F)ccc3c21` [Example 16-1], the IC50 was less than 0.1 µM.

`Cn1ncc2c(=O)n(CCNC(=O)c3ccccc3F)c3cc(F)ccc3c21` [Example 16-2]: the half-maximal inhibitory concentration (IC50) was less than 0.1 µM.

Consider `COc1ccc(CCCn2c(=O)c3cccn3c3ccc(F)cc32)cn1` [Example 18-1, 7-Fluoro-5-[3-(6-methoxy-3-pyridyl)propyl]pyrrolo[1,2-a]quinoxalin-4-one], for which the IC50 is less than 0.1 µM.

For the compound `O=C(CCn1c(=O)c2cn[nH]c2c2ccc(F)cc21)Nc1ccc(F)cc1F` [Example 19-1, N-(2,4-Difluorophenyl)-3-(7-fluoro-4-oxo-1H-pyrazolo[4,3-c]quinolin-5-yl)propanamide], the IC50 was less than 0.1 µM.

Turning to `[2H]C([2H])([2H])n1ncc2c(=O)n(CCC(=O)Nc3ccc(F)cc3F)c3cc(F)ccc3c21` [Example 19-3], the IC50 was less than 0.1 µM.

Regarding `[2H]C([2H])([2H])n1cc2c(=O)n(CCC(=O)Nc3ccc(F)cc3F)c3cc(F)ccc3c2n1` [Example 19-4], the 50% inhibitory concentration (IC50) was less than 0.1 µM.

`[2H]C(C(=O)Nc1ccc(F)cc1F)C([2H])([2H])n1c(=O)c2cnn(C)c2c2ccc(F)cc21` (centres unmarked) [Example 20-1]: the IC50 is less than 0.1 µM.

For `Cn1ncc2c(=O)n(CCC(=O)Nc3ccc(F)cc3F)c3cc(F)c(F)cc3c21` [Example 21-1], the concentration for half-maximal inhibition (IC50) was less than 0.1 µM.

Consider `Cn1ncc2c(=O)n(CCC(=O)Nc3ccc(F)cc3F)c3ccc(F)cc3c21` [Example 21-2], for which the IC50 is less than 0.1 µM.

In the case of `Cn1ncc2c(=O)n(CCC(=O)Nc3ccc(F)cc3F)c3cccc(F)c3c21` [Example 21-3], the half-inhibitory concentration (IC50) was less than 0.1 µM.

Take `Cn1ccc2c3ccc(F)cc3n(CCC(=O)Nc3ccc(F)cc3F)c(=O)c21` [Example 22-1, N-(2,4-Difluorophenyl)-3-{7-fluoro-3-methyl-4-oxo-3H,4H,5H-pyrrolo[2,3-c]quinolin-5-yl}propanamide]: the IC50 is less than 0.1 µM.

For `O=C(CCCn1c(=O)c2cccn2c2ccc(F)cc21)N1CCOCC1` [Example 29-1], the IC50 is less than 0.1 µM.

On to `CC1CC(C)CN(C(=O)CCCn2c(=O)c3cccn3c3ccccc32)C1` (centres unmarked) [Example 29-2], for which the IC50 is less than 0.1 µM.

Turning to `O=C(Cn1c(=O)c2cccn2c2ccc(F)cc21)N1CCCCC1` [Example 29-3], the IC50 was less than 0.1 µM.

For `Cc1ccc(NC(=O)CCn2c(=O)c3cccn3c3ccccc32)cc1` [Example 29-4], the IC50 was less than 0.1 µM.

As for `O=C(CCCn1c(=O)c2cccn2c2ccc(Br)cc21)N1CCCCC1` [Example 29-5], the IC50 was less than 0.1 µM.
